Data taken from the NIST ThermoML archive (doi:10.1021/je400679k).
Numbers after ± are expanded uncertainties.

Columns and labels:
[1] = xn = mol fraction of the nth substance listed; conditions: 101 kPa, Liquid, Vibrating tube method, x2 = 0
[2] = 101 kPa, Liquid, Vibrating tube method

SMILES | mass density ([1]; 293.15 K) | mass density ([1]; 303.15 K) | mass density ([1]; 313.15 K) | mass density ([1]; 323.15 K) | mass density ([1]; 333.15 K) | mass density ([1]; 343.15 K) | mass density ([1]; 353.15 K) | mass density ([1]; 363.15 K) | mass density ([2]; 283.15 K) | mass density ([2]; 293.15 K) | mass density ([2]; 303.15 K) | mass density ([2]; 313.15 K) | mass density ([2]; 323.15 K) | mass density ([2]; 333.15 K) | mass density ([2]; 343.15 K) | mass density ([2]; 353.15 K) | mass density ([2]; 363.15 K) | mass density ([1]; 283.15 K)
CN(CCO)CCO [N-methyldiethanolamine] + CNCCCN | 1040.06 ± 0.92 kg/m3 | 1032.47 ± 0.9 kg/m3 | 1024.86 ± 0.89 kg/m3 | 1017.21 ± 0.87 kg/m3 | 1009.51 ± 0.86 kg/m3 | 1001.73 ± 0.84 kg/m3 | 993.889 ± 0.83 kg/m3 | 985.958 ± 0.82 kg/m3 | – | – | – | – | – | – | – | – | – | –
CN(C)CCO [2-(N,N-dimethylamino)ethanol] | – | – | – | – | – | – | – | – | 894.959 ± 0.11 kg/m3 | 886.56 ± 0.12 kg/m3 | 878.059 ± 0.12 kg/m3 | 869.428 ± 0.12 kg/m3 | 860.655 ± 0.12 kg/m3 | 851.72 ± 0.13 kg/m3 | 842.604 ± 0.13 kg/m3 | 833.288 ± 0.13 kg/m3 | 823.754 ± 0.14 kg/m3 | –
CCN(CC)CCO [(diethylamino)ethanol] + CNCCCN | 885.356 ± 0.23 kg/m3 | 876.155 ± 0.23 kg/m3 | 866.828 ± 0.23 kg/m3 | 857.388 ± 0.23 kg/m3 | 847.839 ± 0.23 kg/m3 | 838.157 ± 0.23 kg/m3 | 828.488 ± 0.23 kg/m3 | 818.597 ± 0.24 kg/m3 | – | – | – | – | – | – | – | – | – | 894.423 ± 0.23 kg/m3
CN(C)CCO [2-(N,N-dimethylamino)ethanol] + CNCCCN | 886.56 ± 0.12 kg/m3 | 878.059 ± 0.12 kg/m3 | 869.428 ± 0.12 kg/m3 | 860.655 ± 0.12 kg/m3 | 851.72 ± 0.13 kg/m3 | 842.604 ± 0.13 kg/m3 | 833.288 ± 0.13 kg/m3 | 823.754 ± 0.14 kg/m3 | – | – | – | – | – | – | – | – | – | 894.959 ± 0.11 kg/m3
O [water] | – | – | – | – | – | – | – | – | 999.701 ± 0.033 kg/m3 | – | – | – | – | 983.197 ± 0.041 kg/m3 | 977.76 ± 0.043 kg/m3 | 971.788 ± 0.046 kg/m3 | 965.305 ± 0.048 kg/m3 | –
CNCCCN [N-methyl-1,3-diaminopropane] | – | – | – | – | – | – | – | – | 860.459 ± 0.68 kg/m3 | 851.605 ± 0.67 kg/m3 | 842.69 ± 0.67 kg/m3 | 833.715 ± 0.66 kg/m3 | 824.673 ± 0.65 kg/m3 | 815.559 ± 0.64 kg/m3 | 806.37 ± 0.63 kg/m3 | 797.093 ± 0.62 kg/m3 | 787.723 ± 0.61 kg/m3 | –
CCN(CC)CCO [(diethylamino)ethanol] | – | – | – | – | – | – | – | – | 894.423 ± 0.23 kg/m3 | 885.356 ± 0.23 kg/m3 | 876.155 ± 0.23 kg/m3 | 866.828 ± 0.23 kg/m3 | 857.388 ± 0.23 kg/m3 | 847.839 ± 0.23 kg/m3 | 838.157 ± 0.23 kg/m3 | 828.488 ± 0.23 kg/m3 | 818.597 ± 0.24 kg/m3 | –
O [water] + CNCCCN | – | – | – | – | 983.197 ± 0.041 kg/m3 | 977.76 ± 0.043 kg/m3 | 971.788 ± 0.046 kg/m3 | 965.305 ± 0.048 kg/m3 | – | – | – | – | – | – | – | – | – | 999.701 ± 0.033 kg/m3
CN(CCO)CCO [N-methyldiethanolamine] | – | – | – | – | – | – | – | – | – | 1040.06 ± 0.92 kg/m3 | 1032.47 ± 0.9 kg/m3 | 1024.86 ± 0.89 kg/m3 | 1017.21 ± 0.87 kg/m3 | 1009.51 ± 0.86 kg/m3 | 1001.73 ± 0.84 kg/m3 | 993.889 ± 0.83 kg/m3 | 985.958 ± 0.82 kg/m3 | –
